# In paper PMC7614687, “Modulation of the substrate specificity of the kinase PDK1 by distinct conformations of the full-length protein*” (Science signaling, 2023):
# Several values for one entry are separate records, joined by “and”; a condition that tells them apart may be missing. Equal values may be shown once. Entries after “also recorded” stand apart in the source; their conditions may differ. Read-outs that look alike come from different tables or passages of the source.
# Columns and labels:
# [1] = biological target: T1, His-PDK1_1-556 and GST-PDK1_360-556 (Homo sapiens, UniProt O15530); experiment: AlphaScreen PDK1 dimerization assay His-PDK1_1-556 / GST-PDK1_360-556; assay type: binding
# T1 construct: made in house; host or cells: Sf9 insect cells (His-PDK1_1-556); HEK293 cells (GST-PDK1_360-556)
# T1 sequence (O15530 1-556): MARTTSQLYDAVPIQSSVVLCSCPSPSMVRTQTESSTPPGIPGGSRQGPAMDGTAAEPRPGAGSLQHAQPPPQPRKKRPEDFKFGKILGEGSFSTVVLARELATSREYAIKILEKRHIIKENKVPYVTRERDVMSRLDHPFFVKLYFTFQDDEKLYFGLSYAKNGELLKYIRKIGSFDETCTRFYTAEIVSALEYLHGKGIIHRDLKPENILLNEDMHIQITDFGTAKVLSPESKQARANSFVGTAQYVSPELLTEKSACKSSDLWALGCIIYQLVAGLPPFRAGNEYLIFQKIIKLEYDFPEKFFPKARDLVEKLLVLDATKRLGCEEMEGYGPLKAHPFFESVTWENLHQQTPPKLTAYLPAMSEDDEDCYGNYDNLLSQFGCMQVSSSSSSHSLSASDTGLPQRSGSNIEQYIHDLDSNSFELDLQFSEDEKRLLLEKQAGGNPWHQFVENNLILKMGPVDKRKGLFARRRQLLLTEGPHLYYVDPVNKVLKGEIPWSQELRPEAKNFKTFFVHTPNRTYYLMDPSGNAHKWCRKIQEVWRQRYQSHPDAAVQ
# Protocol: (§1) The AlphaScreen® assay was performed following the general guidelines from the manufacturer (Perkin Elmer) ([29]). In short, the assay was performed in a final volume of 25 μl in white 384-well microtiter plates (Greiner) in a standard buffer containing 50 mM Tris-HCl (pH 7.4), 100 mM NaCl, 2 mM DTT, 0.01% (v/v) Tween-20 and 0.1% (w/v) BSA, with the addition of 5 μl of beads (anti-GST coated acceptor beads and streptavidin-coated donor beads; nickel chelate-coated acceptor beads and streptavidin-coated donor beads; or nickel chelate-coated acceptor beads and GSH-coated donor beads, 20 μg/ml final concentrations for each bead type). AlphaScreen assays for His-tagged proteins and GST-fusion proteins were performed using nickel chelate-coated acceptor beads and GSH-coated donor beads; alphascreen assays for His-tagged proteins and biotinylated molecules were performed using nickel chelate-coated acceptor beads and streptavidin-coated donor beads; alphascreen assays for GST-fusion proteins and biotinylated molecules were performed using anti-GST coated acceptor beads and streptavidin-coated donor beads (Perkin Elmer).
# (§2) The conditions for each AlphaScreen assay were identified in cross-titration experiments for each interaction to choose the ideal pair of concentrations within the linear range of the interactions. […] His-PDK1 and GST-fusion protein in the presence or absence of the different compounds were incubated in the dark for 60 min at room temperature and the emission of light from the acceptor beads was measured in an EnVision reader (Perkin Elmer) or Spark plate reader (Tecan). […]
# PDK1 = biological target: T2, PDK1 (Homo sapiens, UniProt O15530); experiment: Thermo Fisher "PDK1 Direct" assay (peptide Ser/Thr 07, FRET readout); assay type: biochemical; conditions: for times less potent inhibitors than HYG7, HYG8 and HYG14: PDK1 Direct assay IC50 comparison
# T2 sequence (O15530 1-556): T1 sequence (O15530 1-556)
# PDK1_1-556 = biological target: T3, PDK1_1-556 (Homo sapiens, UniProt O15530); experiment: Differential scanning fluorimetry, thermal stability of PDK1_1-556; assay type: binding; conditions: PDK1 1 μM
# T3 construct: effect of HYG8 on the thermal stability (ΔTm) of PDK1_1-556 (H) and PDK1_50-359 (I); His (N); made in house; host or cells: Sf9 insect cells (baculovirus)
# T3 sequence (O15530 1-556): T1 sequence (O15530 1-556)
# Protocol: The thermal stability of PDK1 was assessed by monitoring the unfolding of PDK1 by the increase in the fluorescence of SYPRO Orange (Invitrogen) using a real-time PCR device (StepOnePlus, Applied Biosystems and BioRad CFX96) following a previously described protocol ([70]). The reactions were performed in a final volume of 10 μl in white 96-well PCR microtiter plates (Greiner) and contained 1 μM PDK1, 10 mM HEPES (pH 7.5), 150 mM NaCl, 1/1000 SYPRO Orange and 1 mM dithiothreitol. For valsartan, the assay buffer was modified to exclude NaCl. PIFtide or compounds (at a final DMSO concentration of 1%) were added to this reaction mixture. The temperature gradient was performed in steps of 0.3 °C in the range from 25 to 70 °C. To calculate the Tm values, data were exported to GraphPad Prism and curves fitted to a Boltzmann sigmoidal equation with an acceptable confidence interval of 95%. Statistical analysis was performed with Infostat software (http://www.infostat.com.ar) and GraphPad Prism by first verifying a normal distribution of pooled residuals (Shapiro-Wilks test) and homogeneity of variance (F test), and then performing a one-way ANOVA followed by the post hoc comparisons test indicated in each figure legend.
# GST-PDK1_1-556 [2] = biological target: T4, GST-PDK1_1-556 (Homo sapiens, UniProt O15530); experiment: AlphaScreen GST-PDK1_1-556 / biotin-PIFtide interaction; assay type: binding
# T4 construct: made in house; host or cells: HEK293 cells (transient transfection of pEBG2T); peptide synthesized by Pepscan
# T4 sequence (O15530 1-556): T1 sequence (O15530 1-556)
# Protocol: as §1
# The interaction between GST-PDK1_1-556 and biotin-PIFtide was performed as described previously ([29], [32]) in the standard buffer, but the bead concentration was lowered to 15 μg/ml.
# GST-PDK1_1-556 [3] = biological target: T4, GST-PDK1_1-556; experiment: AlphaScreen biotin-PIP3 / GST-PDK1_1-556 displacement; assay type: binding; conditions: PIP3 20 nM, GST-PDK1 3 nM
# Protocol: as §1
# The conditions for each AlphaScreen assay were identified in cross-titration experiments for each interaction to choose the ideal pair of concentrations within the linear range of the interactions. As required, the standard conditions were modified to use less material, to increase binding of the interacting molecules, to lower background signal, and so on. His-PDK1 and GST-fusion protein in the presence or absence of the different compounds were incubated in the dark for 60 min at room temperature and the emission of light from the acceptor beads was measured in an EnVision reader (Perkin Elmer) or Spark plate reader (Tecan). AlphaScreen assays were performed at least twice, although most experiments were performed multiple times by different researchers with different batches of purified proteins with similar results.
# (§3) Biotin-PIP3 interactions with GST-PDK1_1-556 or GST-PDK1_360-556 were assessed in the standard buffer. […]
# GST-PDK1_360-556 = biological target: T5, GST-PDK1_360-556 (Homo sapiens, UniProt O15530); experiment: AlphaScreen biotin-PIP3 / GST-PDK1_360-556 (linker-PH domain) displacement; assay type: binding; conditions: PIP3 20 nM, GST-PDK1 3 nM
# T5 construct: GST-PDK1_360-556 (GST-PDK1-Linker-PH) was cloned into the BamHI-KpnI sites in pEBG2T plasmid; made in house; host or cells: HEK293 cells (transient transfection of pEBG2T)
# T5 sequence (O15530 360-556): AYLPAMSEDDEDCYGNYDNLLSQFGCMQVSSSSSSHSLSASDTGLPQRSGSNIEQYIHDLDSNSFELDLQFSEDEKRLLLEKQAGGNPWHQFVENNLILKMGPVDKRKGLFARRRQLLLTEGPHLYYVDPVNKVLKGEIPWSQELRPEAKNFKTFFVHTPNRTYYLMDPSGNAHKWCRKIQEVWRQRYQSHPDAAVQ
# Protocol: The AlphaScreen® assay was performed following the general guidelines from the manufacturer (Perkin Elmer) ([29]). In short, the assay was performed in a final volume of 25 μl in white 384-well microtiter plates (Greiner) in a standard buffer containing 50 mM Tris-HCl (pH 7.4), 100 mM NaCl, 2 mM DTT, 0.01% (v/v) Tween-20 and 0.1% (w/v) BSA, with the addition of 5 μl of beads (anti-GST coated acceptor beads and streptavidin-coated donor beads; nickel chelate-coated acceptor beads and streptavidin-coated donor beads; or nickel chelate-coated acceptor beads and GSH-coated donor beads, 20 μg/ml final concentrations for each bead type). […]
# as §2, §3
# [4] = replicate point 1, read-out: % Inhibition Point 1
# [5] = replicate point 2, read-out: % Inhibition Point 2
# [6] = single point, N=2, read-out: Inhibition at 1 μM (%)
# [7] = absence of PIFtide, read-out: IC50 (nM), displacement of His-PDK1_1-556 interaction with GST-PDK1_360-556
# [8] = with PIFtide, read-out: IC50 (nM), displacement of His-PDK1_1-556 interaction with GST-PDK1_360-556 with PIFtide
Compound,effect on PDK1 dimer formation [1],inhibition at 1 µM (PDK1; [4]),inhibition at 1 µM (PDK1; [5]),inhibition at 1 µM (PDK1; [6]),"Hill slope, PDK1 direct (PDK1; 10-point titration)",IC50 (PDK1; 10-point titration),"Tm (°C), temperature stabilization of PDK1_1-556 (PDK1_1-556; compound 1 µM)","Tm (°C), temperature stabilization of PDK1_1-556 (PDK1_1-556; compound 20 µM)","IC50 [1, 7]","IC50 [1, 8]",other results
"REPRILSEEEQEMFRDFDYIADWS [PIFtide, peptide derived from the PRK2 HM (a PDK1 substrate)]",no effect on dimer formation,–,–,–,–,–,–,–,–,–,–
"CCCC(=O)O[C@H]1[C@@H](OP(=O)(O)O)[C@H](OP(=O)(O)O)[C@@H](OP(=O)(O)O)[C@H](OP(=O)(O)O)[C@H]1OP(=O)(O)O [HYG7, 2-O-butyryl-IP5]",–,101%,99%,100%,1.39,29 nM,12.6 °C and 11-15 °C,14.5 °C and 13-16 °C,22.6 nM,22.7 nM,–
"O=P(O)(O)OC1[C@H](O)[C@H](OP(=O)(O)O)C(OP(=O)(O)O)[C@H](OP(=O)(O)O)[C@H]1O (stereo partly shown) [IP4, inositol-1,3,4,5-tetrakisphosphate, reference compound]",–,–,–,–,–,–,–,–,–,–,effect on PDK1-PIFtide interaction (GST-PDK1_1-556 [2]): did not enhance binding to PIFtide
CNc1nc(-c2ccc3c(N)n[nH]c3c2)cc(N2C[C@@H](C(=O)NC3CCCCC3)CC[C@H]2C)n1 [GSK2334470],None of these compounds affected the dimerization,–,–,–,–,–,–,–,–,–,–
CN[C@@H]1C[C@H]2O[C@@](C)([C@@H]1OC)n1c3ccccc3c3c4c(c5c6ccccc6n2c5c31)C(=O)N[C@H]4O [UCN01],do not affect the formation of PDK1 dimers,–,–,–,–,–,–,–,–,–,–
"O=P(O)(O)O[C@H]1[C@H](OP(=O)(O)O)[C@@H](OP(=O)(O)O)[C@H](OP(=O)(O)O)[C@@H](OP(=O)(O)O)[C@H]1OP(=O)(O)O [IP6, inositol hexakisphosphate, reference compound]",–,8%,7%,8%,–2.18,> 10000 nM,6.2 °C,9.0 °C,–,–,"IC50 (nM), PDK1 direct (PDK1; 10-point titration): inactive; IC50 (nM), displacement of His-PDK1_1-556 interaction with GST-PDK1_360-556 ([1]; absence of PIFtide): Does not reach complete displacement; also recorded: no displacement; IC50 (nM), displacement of His-PDK1_1-556 interaction with GST-PDK1_360-556 with PIFtide ([1]; with PIFtide): Does not reach complete displacement"
"O=P(O)(O)O[C@@H]1[C@@H](OP(=O)(O)O)[C@H](OP(=O)(O)O)[C@@H](O)[C@H](OP(=O)(O)O)[C@H]1OP(=O)(O)O [scyllo-IP5, reference compound]",–,-8%,-10%,–,–,–,4.7 °C,7.3 °C,124 nM,140 nM,"Inhibition at 1 μM (%) (PDK1; single point, N=2): -9%; Inhibition at 1 μM (%) (PDK1; single point, N=2, listed as Scyllo-IP5, 1 µM): ≤ 10%"
"CC(C)C(NCc1ccc(-c2ccccc2-c2nnn[nH]2)cc1)C(=O)O (stereo not shown) [Des(oxopentyl) valsartan, des(oxopentyl)valsartan, reference compound]",did not disrupt PDK1 dimers,–,–,–,–,–,–,–,–,–,–
O=C(CC(c1ccccc1)C(C(=O)O)C(=O)O)c1ccc(C(F)(F)F)cc1 (stereo not shown) [PS210],None of these compounds affected the dimerization,–,–,–,–,–,–,–,–,–,–
Nc1ncnc2[nH]cnc12 [adenine],do not affect the formation of PDK1 dimers,–,–,–,–,–,–,–,–,–,–
"NCCO[C@H]1[C@@H](OP(=O)(O)O)[C@H](OP(=O)(O)O)[C@@H](OP(=O)(O)O)[C@H](OP(=O)(O)O)[C@H]1OP(=O)(O)O [AMR1474, 2-O-(2-aminoethyl)-IP5]",–,9%,11%,≤ 10%,–,–,2.9 °C,6.0 °C,458 nM,159 nM,displacement of PIP3 from GST-PDK1_1-556 (GST-PDK1_1-556 [3]): lacked or showed reduced ability to displace; displacement of PIP3 from GST-PDK1_360-556 (GST-PDK1_360-556): lacked or showed reduced ability to displace; effect on PDK1-PIFtide interaction (GST-PDK1_1-556 [2]): virtually no effect
"CC(=O)O[C@H]1[C@@H](OP(=O)(O)O)[C@H](OP(=O)(O)O)[C@@H](OP(=O)(O)O)[C@H](OP(=O)(O)O)[C@H]1OP(=O)(O)O [HYG6, 2-O-acetyl-IP5]",–,53%,64%,59%,1.11,449 nM,7.8 °C,9.9 °C,27 nM,17.9 nM,"times less potent inhibitors than HYG7, HYG8 and HYG14 (PDK1): 15 to 36 times"
"O=P(O)(O)O[C@@H]1[C@@H](OP(=O)(O)O)[C@H](OP(=O)(O)O)[C@H](O)[C@H](OP(=O)(O)O)[C@H]1OP(=O)(O)O [IP5, inositol-1,3,4,5,6-pentaphosphate, reference compound]",–,63%,69%,66%,1.33,577 nM,5.3 °C,11.9 °C,67 nM,59.4 nM,"times less potent inhibitors than HYG7, HYG8 and HYG14 (PDK1): 15 to 36 times"
